{"source": "patent US11623924B2", "about": "“Modulators of alpha-1 antitrypsin” (Vertex Pharmaceuticals Incorporated, priority 2018, dated 2023)", "data": [{"target": "T1, NL20 human bronchial epithelial cells expressing human Z-AAT (Homo sapiens, UniProt P01009, E366K)", "T1 construct": "expressed in transfected cells; host or cells: NL20 human bronchial epithelial cells (NL20-SI line, doxycycline added)", "T1 sequence (P01009 25-418 E366K)": "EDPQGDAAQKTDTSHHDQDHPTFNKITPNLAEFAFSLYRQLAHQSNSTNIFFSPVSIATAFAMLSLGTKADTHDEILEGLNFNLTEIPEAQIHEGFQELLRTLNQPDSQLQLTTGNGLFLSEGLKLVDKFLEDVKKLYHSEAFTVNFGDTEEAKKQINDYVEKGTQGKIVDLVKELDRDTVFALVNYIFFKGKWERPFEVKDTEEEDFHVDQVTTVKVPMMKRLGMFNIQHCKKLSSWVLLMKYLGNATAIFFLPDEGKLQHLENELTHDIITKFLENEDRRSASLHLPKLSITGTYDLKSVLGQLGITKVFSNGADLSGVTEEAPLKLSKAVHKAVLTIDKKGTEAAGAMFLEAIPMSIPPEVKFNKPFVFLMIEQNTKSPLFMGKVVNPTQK", "test": "AAT Function Assay (MSD Assay NL20-SI Cell Line)", "assay_type": "cell-based", "settings": "functionally active AAT (AAT-hNE complex) in supernatant of NL20 cells expressing human Z-AAT; read-out: NL20 Func. (EC50)", "experimental": "A. AAT Function Assay (MSD Assay NL20-SI Cell Line)\nAlpha-1 antitrypsin (AAT) is a SERPIN (serine protease inhibitor) that inactivates enzymes by binding to them covalently. This assay measured the amount of functionally active AAT in a sample in the presence of the disclosed compounds 1-215 by determining the ability of AAT to form an irreversible complex with human neutrophil Elastase (hNE). In practice, the sample (cell supernatant, blood sample, or other) was incubated with excess hNE to allow AAT-Elastase complex to be formed with all functional AAT in the sample. This complex was then captured to a microplate coated with an anti-AAT antibody. The complex captured to the plate was detected with a labeled anti-Elastase antibody and quantitated using a set of AAT standards spanning the concentration range present in the sample. Meso Scale Discovery (MSD) plate reader, Sulfo-tag labeling, and microplates were used to provide high sensitivity and wide dynamic range.\n• 1. Harvest NL20 human bronchial epithelial cells expressing human Z-AAT in OptiMEM™ containing Pen/Strep (P/S) • 2. Seed at 16,000 cells/well in 30 μL (384 well plate) • 3. Centrifuge plates briefly up to speed (1200 rpm) and place into 37° C. incubator overnight Day 2: Compound Addition and Coating Plates with Capture Antibody Compound Addition: • 1. Dispense 40 μL of OptiMEM™ (P/S) with doxycycline (1:1000 stock=0.1 μM final) to each well of the compound plate using a multidrop Combi in hood • 2. Remove cell plate from incubator, flip/blot and take immediately to Bravo to transfer compounds • 3. Return plates to incubator overnight Coat MSD Plates • 1. Dilute capture antibody (Polyclonal Goat anti-AAT) to 5 μg/mL (1:200) in PBS (no BSA). • 2. Dispense 25 μL of diluted capture antibody into all wells of MSD 384-well High Bind plate using the Multidrop equipped with a standard cassette. • 3. Incubate overnight at 4° C. Prepare Blocker A (BSA) Solutions • 1. Prepare solution of 5% MSD Blocker A (BSA) following the manufacturer's instructions. • 2. Further dilute the 5% MSD Blocker A in PBS to 1% (Blocker A) as needed. Day 3: Run MSD Assay\nBlock Plates • 1. Wash plate 1× with 50 μL Wash buffer (PBS+0.5% Tween 20), and adds 35 μL 5% Block A buffer to block non-specific binding on washer dispenser • 2. Rotate plates on shaker for 1 hour at 600 rpm\nPrepare M-AAT Standards • 1. Dilute M-AAT stock to 1.6 μg/mL in 1% BSA Blocker A (Stock in −70° C.); then prepare 12×1:2 serial dilutions in 1% Blocker A • 2. The top starting final concentration on MSD plate is 320 ng/mL. These dilutions correspond to a final concentration of 320, 160, 80, 40, 20, 10, 5, 2.5, 1.25, 0.625, 0.312, 0.156 ng/mL.\nDilution Plate • 1. Add 80 μL of 1% Assay buffer to all wells except columns 1/24 (standards) with Multidrop Combi • 2. Add diluted standards to columns 1 and 24 • 3. Centrifuge dilution plates 1200 rpm briefly\nCell Plate • 1. Aspirate columns which will have the standards from the cell plates in the hood using 16-pin aspirator\nPrepare Human Neutrophil Elastase (hNE) • 1. Prepare 1 μg/mL Human Neutrophil Elastase by diluting in 1% Blocker A. • a. Small 100 μg vial—add 1 mL PBS (100 μg/mL) • i. This can then be diluted 1:100 in 1% Assay Buffer for a final 1 μg/mL concentration\nMSD—Add hNE (20 μL/well) • 1. After the MSD plate has blocked for at least 1 hour, wash plate 1× with 50 μL Wash buffer (PBS+0.5% Tween 20) and then add 20 μL hNE to each well\nBravo—Cell Plate—Dilution Plate—MSD Plate\nUsing the Bravo aspirate 10 μL from the cell plate, transfer to the dilution plate (9-fold dilution)\n• 1. Mix 25 μL 3×, then aspirate 5 μL, transfer to MSD plate (5-fold dilution) • 2. Mix 10 μL 3×. Total dilution is 45 fold. • 3. Shake plates at 600 rpm for 1.5 hours\nAdd Functional detection hNE antibody • 1. Wash plate 1× with wash buffer • 2. […]", "units": {"EC50": "µM"}, "values": [{"smiles": "[2H]C(C(=O)O)C([2H])([2H])c1c(C(C)C)n(-c2ccc(F)cc2)c2cc3cn[nH]c3cc12", "note": "(stereo not shown) [Compound 168, 2,3,3-trideuterio-3-[5-(4-fluorophenyl)-6-isopropyl-1H-pyrrolo[2,3-f]indazol-7-yl]propanoic acid]", "EC50": "1.16 to 3"}, {"smiles": "CC(C)c1c(CCC(=O)O)c2nc3[nH]ncc3cc2n1-c1ccc(F)cc1", "note": "[Compound 203, 3-[10-(4-fluorophenyl)-11-isopropyl-2,4,5,10-tetrazatricyclo[7.3.0.03,7]dodeca-1,3(7),5,8,11-pentaen-12-yl]propanoic Acid]", "EC50": "> 3"}, {"smiles": "O=C(O)C1CC2(C1)CC(c1c(C3C[C@H]4CC[C@@H](C3)O4)n(-c3ccc(F)cc3)c3cc4cn[nH]c4cc13)C2", "note": "(mixture of isomers) [Compound 122, 6-[5-(4-fluorophenyl)-6-(8-oxabicyclo[3.2.1]octan-3-yl)-1H-pyrrolo[2,3-f]indazol-7-yl]spiro[3.3]heptane-2-carboxylic Acid]", "EC50": "1.16 to 3"}, {"smiles": "COCC(C)(C)c1c(CCCNC(N)=O)c2cc3[nH]ncc3cc2n1-c1ccc(F)cc1", "note": "[Compound 180]", "EC50": "1.16 to 3"}, {"smiles": "C[C@H](O)C(=O)N1CC2(CC(c3c(C4CCOCC4)n(-c4ccc(F)c(F)c4)c4cc5cn[nH]c5cc34)C2)C1", "note": "[Compound 184, (2S)-1-[6-[5-(3,4-difluorophenyl)-6-tetrahydropyran-4-yl-1H-pyrrolo[2,3-f]indazol-7-yl]-2-azaspiro[3.3]heptan-2-yl]-2-hydroxy-propan-1-one]", "EC50": "> 3"}, {"smiles": "O=C(O)C1CC(Cc2c(C3CCOCC3)n(-c3ccc(F)c(Cl)c3)c3cc4cn[nH]c4cc23)C1", "note": "(mixture of isomers) [Compound 79]", "EC50": "1.16 to 3"}, {"smiles": "CC(C)c1c(CCC(=O)N2C[C@@H](O)[C@H](O)C2)c2cc3[nH]ncc3cc2n1-c1ccc(F)cc1", "note": "[Compound 212, 1-[(3R,4R)-3,4-dihydroxypyrrolidin-1-yl]-3-[5-(4-fluorophenyl)-6-isopropyl-1H-pyrrolo[2,3-f]indazol-7-yl]propan-1-one]", "EC50": "> 3"}, {"smiles": "Cc1cc(-n2c(C3CCOCC3)c([C@H]3C[C@H](C(=O)O)C3)c3cc4[nH]ncc4cc32)ccc1F", "note": "[Compound 100]", "EC50": "1.16 to 3"}, {"smiles": "[2H]c1c([2H])c(-n2c(C(C)C)c(CCC(=O)O)c3cc4[nH]ncc4cc32)c([2H])c([2H])c1F", "note": "[Compound 188, 3-[6-isopropyl-5-(2,3,5,6-tetradeuterio-4-fluoro-phenyl)-1H-pyrrolo[2,3-f]indazol-7-yl]propanoic Acid]", "EC50": "1.16 to 3"}, {"smiles": "N#Cc1n[nH]c2cc3c(C4CC5(CC(C(=O)O)C5)C4)c(C4CCOCC4)n(-c4ccc(F)c(F)c4)c3cc12", "note": "(stereo not shown) [Compound 186, 6-[3-cyano-5-(3,4-difluorophenyl)-6-tetrahydropyran-4-yl-1H-pyrrolo[2,3-f]indazol-7-yl]spiro[3.3]heptane-2-carboxylic Acid]", "EC50": "> 3"}, {"smiles": "Cc1cc(-n2c(C(C)C)c(CC(C)C(=O)O)c3cc4[nH]ncc4cc32)ccc1F", "note": "(single isomer, unassigned) [Compound 21]", "EC50": "< 1.16"}, {"smiles": "Cc1c2[nH]ncc2cc2c1c(C1=CC3(C1)CC(C(=O)O)C3)c(C1CCOCC1)n2-c1ccc(F)c(F)c1", "note": "(stereo not shown) [Compound 132, 2-[5-(3,4-difluorophenyl)-8-methyl-6-tetrahydropyran-4-yl-1H-pyrrolo[2,3-f]indazol-7-yl]spiro[3.3]hept-2-ene-6-carboxylic Acid]", "EC50": "< 1.16"}, {"smiles": "C=C(C)c1c(CCC(=O)O)c2cc3[nH]ncc3cc2n1-c1ccc(F)cc1", "note": "[Compound 192, 3-[5-(4-fluorophenyl)-6-isopropenyl-1H-pyrrolo[2,3-f]indazol-7-yl]propanoic Acid]", "EC50": "1.16 to 3"}, {"smiles": "CC(C)c1c(CCC(=O)O)c2cc3[nH]ccc3cc2n1-c1ccc(F)cc1", "note": "[Compound 200, 3-[1-(4-fluorophenyl)-2-isopropyl-5H-pyrrolo[2,3-f]indol-3-yl]propanoic Acid]", "EC50": "> 3"}, {"smiles": "CCS(=O)(=O)CCc1c(C2CCOCC2)n(-c2ccc(F)cc2)c2cc3cn[nH]c3cc12", "note": "[Compound 158, 7-(2-ethylsulfonylethyl)-5-(4-fluorophenyl)-6-tetrahydropyran-4-yl-1H-pyrrolo[2,3-f]indazole]", "EC50": "> 3"}, {"smiles": "O=C(O)[C@H]1C[C@@H](Cc2c(C3CCOCC3)n(-c3ccc(F)cc3)c3cc4cn[nH]c4cc23)C1", "note": "[Compound 117]", "EC50": "1.16 to 3"}, {"smiles": "O=C(O)[C@H]1C[C@@H](c2c(C3CCOCC3)n(-c3ccc(F)c(F)c3)c3cc4cn[nH]c4cc32)C1", "note": "[Compound 65]", "EC50": "> 3"}, {"smiles": "Cc1cc(-n2c(C3CCOCC3)c([C@H]3C[C@@H](CC(=O)O)C3)c3cc4[nH]ncc4cc32)ccc1F", "note": "(single isomer, unassigned) [Compound 95]", "EC50": "1.16 to 3"}, {"smiles": "Cc1cc(-n2c(C(C)C)cc3c(I)c4[nH]ncc4cc32)ccc1F", "note": "[Compound 48, 5-(4-fluoro-3-methyl-phenyl)-8-iodo-6-isopropyl-1H-pyrrolo[2,3-f]indazole]", "EC50": "> 3"}, {"smiles": "Fc1ccc(-n2c(C3CCOCC3)c(Cl)c3cc4[nH]ncc4cc32)cc1", "note": "[Compound 63, 7-chloro-5-(4-fluorophenyl)-6-tetrahydropyran-4-yl-1H-pyrrolo[2,3-f]indazole]", "EC50": "1.16 to 3"}, {"smiles": "Cc1cc(-n2c(C3CCOCC3)c(C3CC4(CC(C(=O)O)C4)C3)c3cc4[nH]nc(C)c4cc32)ccc1F", "note": "(racemic) [Compound 126, 6-[5-(4-fluoro-3-methyl-phenyl)-3-methyl-6-tetrahydropyran-4-yl-1H-pyrrolo[2,3-f]indazol-7-yl]spiro[3.3]heptane-2-carboxylic acid]", "EC50": "1.16 to 3"}, {"smiles": "Cc1cc(-n2c(C(C)C)c(C3CC4(CC(C(=O)O)C4)C3)c3cc4[nH]nc(C)c4cc32)ccc1F", "note": "(single isomer, unassigned) [Compound 57, 6-[5-(4-fluoro-3-methyl-phenyl)-6-isopropyl-3-methyl-1H-pyrrolo[2,3-f]indazol-7-yl]spiro[3.3]heptane-2-carboxylic acid]", "EC50": "1.16 to 3"}, {"smiles": "[2H]C(C(=O)O)C([2H])c1c(C(C)C)n(-c2ccc(F)cc2)c2cc3cn[nH]c3cc12", "note": "(stereo not shown) [Compound 167, 2,3-dideuterio-3-[5-(4-fluorophenyl)-6-isopropyl-1H-pyrrolo[2,3-f]indazol-7-yl]propanoic Acid]", "EC50": "1.16 to 3"}, {"smiles": "O=C(O)C1CC2(C1)CC(c1c(C3CCOC3)n(-c3ccc(F)cc3)c3cc4cn[nH]c4cc13)C2", "note": "(single isomer, unassigned) [Compound 142, 6-[5-(4-fluorophenyl)-6-tetrahydrofuran-3-yl-1H-pyrrolo[2,3-f]indazol-7-yl]spiro[3.3]heptane-2-carboxylic Acid]", "EC50": "> 3"}, {"smiles": "CC1(C(=O)O)CC(c2c(C3CCOCC3)n(-c3ccc(F)c(F)c3)c3cc4cn[nH]c4cc23)C1", "note": "(single isomer, unassigned) [Compound 70]", "EC50": "< 1.16"}, {"smiles": "NC(=O)N1CCCC(Cc2c(C3CCOCC3)n(-c3ccc(F)cc3)c3cc4cn[nH]c4cc23)C1", "note": "(stereo not shown) [Compound 155, 3-[[5-(4-fluorophenyl)-6-tetrahydropyran-4-yl-1H-pyrrolo[2,3-f]indazol-7-yl]methyl]piperidine-1-carboxamide]", "EC50": "> 3"}, {"smiles": "CC(C)c1c(CCC(=O)O)c2cc3[nH]ncc3cc2n1-c1ccc(F)c(F)c1", "note": "[Compound 38, 3-[5-(3,4-difluorophenyl)-6-isopropyl-1H-pyrrolo[2,3-f]indazol-7-yl]propanoic Acid]", "EC50": "1.16 to 3"}, {"smiles": "COCCc1c(C(C)(C)COC)n(-c2ccc(F)cc2)c2cc3cn[nH]c3cc12", "note": "[Compound 178]", "EC50": "1.16 to 3"}]}]}
